Laboratory results from patent US20260216196A1, “IMIDAZO[1,2-A]PYRIDINE AND IMIDAZO[1,2-A]PYRAZINE DERIVATIVES AS MLLT1 AND MLLT3 INHIBITORS” (DARK BLUE THERAPEUTICS LTD., priority 2022, published 2026).
Where two headings read alike, the source gives them in different places.

Key:
MLLT3 = MLLT3 (Homo sapiens, UniProt P42568); experiment: HTRF IC50 determination assay, MLLT3 / H3K9cro peptide displacement
MLLT1 [1] = biological target: T1, MLLT1 (Homo sapiens, UniProt Q03111); conditions: read-out: MLLT1 assay IC50; HTRF, 6His tagged MLLT1, biotinylated H3K9cro peptide; compound 20 μM to 20 nM, 11 data points in duplicate
MLLT1 [2] = biological target: T1, MLLT1; experiment: biochemical; conditions: MLLT1 assay IC50 (nM), HTRF, 6His tagged MLLT1, biotinylated H3K9cro peptide; compound 20 μM to 20 nM, 11 data points in duplicate
[3] = read-out: MLLT3 assay IC50, 6His tagged MLLT3, biotinylated H3K9cro peptide, compound 20 μM to 20 nM, 11 data points in duplicate
[4] = MLLT3 assay IC50 (nM), 6His tagged MLLT3, biotinylated H3K9cro peptide, compound 20 μM to 20 nM, 11 data points in duplicate

T1 sequence (Q03111 whole entry): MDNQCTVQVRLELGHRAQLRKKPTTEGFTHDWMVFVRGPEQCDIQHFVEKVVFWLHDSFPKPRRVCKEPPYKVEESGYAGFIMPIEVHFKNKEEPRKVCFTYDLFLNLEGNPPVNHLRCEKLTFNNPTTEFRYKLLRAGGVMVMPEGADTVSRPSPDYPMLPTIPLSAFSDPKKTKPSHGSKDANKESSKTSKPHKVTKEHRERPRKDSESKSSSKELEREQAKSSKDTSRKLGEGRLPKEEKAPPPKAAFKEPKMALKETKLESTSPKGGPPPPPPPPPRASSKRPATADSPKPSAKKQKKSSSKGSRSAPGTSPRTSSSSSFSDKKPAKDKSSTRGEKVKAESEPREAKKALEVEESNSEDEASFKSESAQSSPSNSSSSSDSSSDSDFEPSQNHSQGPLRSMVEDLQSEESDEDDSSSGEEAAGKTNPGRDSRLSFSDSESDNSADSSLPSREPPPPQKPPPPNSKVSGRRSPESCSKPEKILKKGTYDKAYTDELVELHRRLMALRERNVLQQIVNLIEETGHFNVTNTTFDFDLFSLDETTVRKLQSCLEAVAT
Chain of MLLT3 (P42568 whole entry): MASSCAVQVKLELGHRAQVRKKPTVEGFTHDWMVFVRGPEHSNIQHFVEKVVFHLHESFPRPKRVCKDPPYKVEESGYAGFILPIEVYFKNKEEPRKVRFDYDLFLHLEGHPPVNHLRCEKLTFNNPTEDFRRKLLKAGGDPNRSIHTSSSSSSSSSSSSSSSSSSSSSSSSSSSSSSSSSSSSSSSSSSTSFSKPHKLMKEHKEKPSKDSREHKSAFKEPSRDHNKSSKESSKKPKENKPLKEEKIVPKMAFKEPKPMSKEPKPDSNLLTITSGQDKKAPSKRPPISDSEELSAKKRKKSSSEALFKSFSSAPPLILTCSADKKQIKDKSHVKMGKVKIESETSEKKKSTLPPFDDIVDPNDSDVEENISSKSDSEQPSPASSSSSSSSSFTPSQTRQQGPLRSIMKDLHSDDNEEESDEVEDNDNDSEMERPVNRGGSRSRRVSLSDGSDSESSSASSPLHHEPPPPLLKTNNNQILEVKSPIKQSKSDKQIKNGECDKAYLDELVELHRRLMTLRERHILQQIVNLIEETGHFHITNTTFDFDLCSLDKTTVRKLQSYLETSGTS

Structure (SMILES)	IC50 (MLLT3; [3]) [nM]	IC50 (MLLT1 [1]) [nM]	IC50 (MLLT3; [4]) [nM]	IC50 (MLLT1 [2]) [nM]
C[C@@H]1C[C@H](c2cn3cc(NC(=O)c4ccc5c(cnn5C)c4)ncc3n2)N(C)C1 (relative stereo) [Example 90, N-(2-((2R, rel-4R)-1,4-dimethylpyrrolidin-2-yl)imidazo[1,2-a]pyrazin-6-yl)-1-methyl-1H-indazole-5-carboxamide]	150 to 1500	< 150	–	–
CO[C@H]1C[C@@H](c2cn3cc(NC(=O)c4ccc5c(cnn5C)c4)ncc3n2)N(C)C1 (stereo in doubt) [Example 86, N-{2-[(rel-2S,4S)-4-methoxy-1-methylpyrrolidin-2-yl]imidazo[1,2-a]pyrazin-6-yl}-1-methylindazole-5-carboxamide]	1500 to 20000	150 to 1500	–	–
CO[C@@H]1C[C@@H](c2cn3cc(NC(=O)c4ccc5c(cnn5C)c4)ncc3n2)N(C)C1 (stereo in doubt) [Example 104, N-{2-[(rel-2S,4R)-4-methoxy-1-methylpyrrolidin-2-yl]imidazo[1,2-a]pyrazin-6-yl}-1-methylindazole-5-carboxamide]	1500 to 20000	150 to 1500	–	–
CO[C@H]1C[C@H](c2cn3cc(NC(=O)c4ccc5c(cnn5C)c4)ncc3n2)N(C)C1 (stereo in doubt) [Example 85, N-{2-[(rel-2R,4S)-4-methoxy-1-methylpyrrolidin-2-yl]imidazo[1,2-a]pyrazin-6-yl}-1-methylindazole-5-carboxamide]	150 to 1500	150 to 1500	–	–
COCCc1nn(C)c2ccc(C(=O)Nc3ccc4nc(C5CCCN5C)cn4c3)cc12 (racemic) [Example 49, rac-3-(2-methoxyethyl)-1-methyl-N-[2-(1-methylpyrrolidin-2-yl)imidazo[1,2-a]pyridin-6-yl]-1 H-indazole-5-carboxamide]	–	–	150 to 1500	150 to 1500
COCCN1CCCC1c1cn2cc(NC(=O)c3ccc4c(C)nn(C)c4c3)ccc2n1 (racemic) [Example 62, rac-N-{2-[1-(2-methoxyethyl)pyrrolidin-2-yl]imidazo[1,2-a]pyridin-6-yl}-1,3-dimethyl-1H-indazole-6-carboxamide]	–	–	1500 to 20000	1500 to 20000
CN1CCCC1c1cn2cc(NC(=O)c3ccc4c(cnn4C)c3)ccc2n1 (single isomer, unassigned) [Example 59]	–	–	1500 to 20000	1500 to 20000
CN1CCC[C@@H]1c1cn2cc(NC(=O)c3ccc4nnn(C)c4c3)ncc2n1 [Example 97, 3-methyl-N-{2-[(2R)-1-methylpyrrolidin-2-yl]imidazo[1,2-a]pyrazin-6-yl}-1,2,3-benzotriazole-5-carboxamide]	–	–	150 to 1500	150 to 1500
CN1CCCC1c1cn2cc(NC(=O)c3ccc4scnc4c3)ccc2n1 (stereo not drawn) [Example 41]	–	–	150 to 1500	150 to 1500
CN1CCCC1c1cn2cc(NC(=O)c3ccc(-c4ncccn4)cc3F)ccc2n1 (single isomer, unassigned) [Example 20]	–	–	1500 to 20000	1500 to 20000
CN1CCCCC1c1cn2cc(NC(=O)c3ccc4c(cnn4C)c3)ccc2n1 (single isomer, unassigned) [Example 27]	–	–	> 20000	1500 to 20000
Cc1ncc(-c2ccc(F)c(C(=O)Nc3ccc4nc(C5CCCN5C)cn4c3)c2)s1 (single isomer, unassigned) [Example 23]	–	–	150 to 1500	150 to 1500
Cc1nc(NC(=O)c2cc3cnc(C)n3cc2F)cn2cc([C@H]3CCCN3C)nc12 [Example 93, 6-fluoro-3-methyl-N-{8-methyl-2-[(2R)-1-methylpyrrolidin-2-yl]imidazo[1,2-a]pyrazin-6-yl}imidazo[1,5-a]pyridine-7-carboxamide]	–	–	150 to 1500	150 to 1500
CN1CCC[C@@H]1c1cn2cc(NC(=O)c3cc4cnn(C)c4cn3)ncc2n1 [Example 95, 1-methyl-N-{2-[(2R)-1-methylpyrrolidin-2-yl]imidazo[1,2-a]pyrazin-6-yl}pyrazolo[3,4-c]pyridine-5-carboxamide]	–	–	1500 to 20000	1500 to 20000
CN1CCCC1c1cn2cc(NC(=O)c3cnc(-c4ccccc4)o3)ccc2n1 (racemic) [Example 46, rac-N-[2-(1-methylpyrrolidin-2-yl)imidazo[1,2-a]pyridin-6-yl]-2-phenyl-1,3-oxazole-5-carboxamide]	–	–	1500 to 20000	1500 to 20000
CN1CCCC1c1cn2cc(NC(=O)c3ccc(-c4ncon4)cc3)ccc2n1 (racemic) [Example 51, rac-N-[2-(1-methylpyrrolidin-2-yl)imidazo[1,2-a]pyridin-6-yl]-4-(1,2,4-oxadiazol-3-yl)benzamide]	–	–	1500 to 20000	150 to 1500
Cc1nn(C)c2cc(C(=O)Nc3cn4cc([C@@H]5CCCN5C)nc4cn3)ccc12 (single isomer, unassigned) [Example 69]	–	–	1500 to 20000	1500 to 20000

Structure (SMILES)	IC50 (MLLT3; [3]) [nM]	IC50 (MLLT1 [1]) [nM]	IC50 (MLLT3; [4]) [nM]	IC50 (MLLT1 [2]) [nM]
CN1CCCC1c1cn2cc(NC(=O)c3ccc4ncoc4c3)ccc2n1 (racemic) [Example 37, rac-N-[2-(1-methylpyrrolidin-2-yl)imidazo[1,2-a]pyridin-6-yl]-1,3-benzoxazole-6-carboxamide]	–	–	1500 to 20000	150 to 1500
CCc1nn(C)c2cc(C(=O)Nc3cn4cc([C@H]5CCCN5C)nc4cn3)ccc12 [Example 72, 3-ethyl-1-methyl-N-{2-[(2R)-1-methylpyrrolidin-2-yl]imidazo[1,2-a]pyrazin-6-yl}-1H-indazole-6-carboxamide]	–	–	150 to 1500	150 to 1500
CN1CCCC1c1cn2cc(NC(=O)c3ccc(Cn4cccn4)cc3)ccc2n1 (racemic) [Example 42, rac-N-[2-(1-methylpyrrolidin-2-yl)imidazo[1,2-a]pyridin-6-yl]-4-[(1H-pyrazol-1-yl)methyl]benzamide]	–	–	1500 to 20000	150 to 1500
Cc1nc(NC(=O)c2cc3c(C)nc(C)n3cc2F)cn2cc([C@H]3CCCN3C)nc12 [Example 94, 6-fluoro-1,3-dimethyl-N-{8-methyl-2-[(2R)-1-methylpyrrolidin-2-yl]imidazo[1,2-a]pyrazin-6-yl}imidazo[1,5-a]pyridine-7-carboxamide]	–	–	150 to 1500	150 to 1500
Cc1nn(C)c2cc(C(=O)Nc3ccc4nc(C5CCCN5C)cn4c3)ccc12 (racemic) [Example 14, rac-1,3-dimethyl-N-[2-(1-methylpyrrolidin-2-yl)imidazo[1,2-a]pyridin-6-yl]-1H-indazole-6-carboxamide]	–	–	150 to 1500	150 to 1500
CN1CCCC1c1cn2cc(NC(=O)c3ccc4c(cnn4C)c3)ncc2n1 (racemic) [Example 68, rac-1-methyl-N-[2-(1-methylpyrrolidin-2-yl)imidazo[1,2-a]pyrazin-6-yl]-1H-indazole-5-carboxamide]	–	–	150 to 1500	150 to 1500
CN1CCCC1c1cn2cc(NC(=O)c3ccc(-n4cccn4)cc3)ccc2n1 (racemic) [Example 40, rac-N-[2-(1-methylpyrrolidin-2-yl)imidazo[1,2-a]pyridin-6-yl]-4-(1H-pyrazol-1-yl)benzamide]	–	–	1500 to 20000	150 to 1500
CN1CCCC1c1cn2cc(NC(=O)c3ccc4c(cnn4C)c3)ccc2n1 (single isomer, unassigned) [Example 60]	–	–	150 to 1500	< 150
Cc1c(C(=O)Nc2ccc3nc(C4CCCN4C)cn3c2)sc2nc[nH]c(=O)c12 (racemic) [Example 44, rac-5-methyl-N-[2-(1-methylpyrrolidin-2-yl)imidazo[1,2-a]pyridin-6-yl]-4-oxo-3H,4H-thieno[2,3-d]pyrimidine-6-carboxamide]	–	–	1500 to 20000	1500 to 20000
Cc1nn(C)c2cc(C(=O)Nc3cn4cc(C5CC(C)(C)CN5C)nc4cn3)ccc12 (single isomer, unassigned) [Example 82]	–	–	< 150	< 150
Cc1nn(C)c2sc(C(=O)Nc3ccc4nc(C5CCCN5C)cn4c3)cc12 (racemic) [Example 18, rac-1,3-dimethyl-N-[2-(1-methylpyrrolidin-2-yl)imidazo[1,2-a]pyridin-6-yl]-1H-thieno[2,3-c]pyrazole-5-carboxamide]	–	–	1500 to 20000	1500 to 20000
C[C@H]1C[C@H](c2cn3cc(NC(=O)c4ccc5c(cnn5C)c4)ncc3n2)N(C)C1 (relative stereo) [Example 89, N-(2-((2R, rel-4S)-1,4-dimethylpyrrolidin-2-yl)imidazo[1,2-a]pyrazin-6-yl)-1-methyl-1H-indazole-5-carboxamide]	150 to 1500	150 to 1500	–	–
Cc1nn(C)c2cc(C(=O)Nc3cn4cc([C@H]5CCCN5C)nc4cn3)c(F)cc12 [Example 73, 5-fluoro-1,3-dimethyl-N-{2-[(2R)-1-methylpyrrolidin-2-yl]imidazo[1,2-a]pyrazin-6-yl}-1H-indazole-6-carboxamide]	–	–	150 to 1500	150 to 1500
Cc1nn(C)c2cc(C(=O)Nc3cn4cc([C@H]5CCCN5)nc4cn3)ccc12 [Example 76, 1,3-dimethyl-N-[2-[(2R)-pyrrolidin-2-yl]imidazo[1,2-a]pyrazin-6-yl]indazole-6-carboxamide]	–	–	1500 to 20000	150 to 1500
CO[C@@H]1C[C@H](c2cn3cc(NC(=O)c4ccc5c(cnn5C)c4)ncc3n2)N(C)C1 (stereo in doubt) [Example 103, N-{2-[(rel-2R,4R)-4-methoxy-1-methylpyrrolidin-2-yl]imidazo[1,2-a]pyrazin-6-yl}-1-methylindazole-5-carboxamide]	150 to 1500	150 to 1500	–	–
Cc1nn(C)c2ncc(C(=O)Nc3ccc4nc(C5CCCN5C)cn4c3)c(Cl)c12 (racemic) [Example 15, rac-4-chloro-1,3-dimethyl-N-[2-(1-methylpyrrolidin-2-yl)imidazo[1,2-a]pyridin-6-yl]-1H-pyrazolo[3,4-b]pyridine-5-carboxamide]	–	–	1500 to 20000	1500 to 20000
